{"source": "patent US5492924A", "about": "“Phorbine derivatives and their use in the diagnosis and therapy of cancer” (Fox Chase Cancer Center, priority 1993, dated 1996)", "key": {"EMT-6 mouse tumor cells [1]": {"system": "EMT-6 mouse tumor cells", "test": "Photosensitizing effectiveness with EMT-6 tumor cells in vitro (photoinactivation)", "assay_type": "cell-based", "settings": "for Photoinactivation rate (1/D50): 670 nm (pheophorbide) or 750 nm (bacteriopheophorbide), one hour exposure", "method": "EMT-6 mouse tumor cells were exposed in slowly-stirred suspension cultures to various concentrations of Ph6-OH, Ph4-OH and BPh4-OH for one hour prior to illumination with graded light doses of specific wavelength. The pheophorbide and bacteriopheophorbide compounds were illuminated with 670 and 750 nm light, respectively. Illuminated cell populations were plated into Petri dishes containing appropriate media for colony forming assays. The surviving fraction (SF) of cells after various PDT treatments was computed from the ratio, [plating efficiency (treated cells)]/[plating efficiency (control cells)]. For each photosensitizer dosage investigated,survival curves of log SF versus light dose were constructed and analyzed. The light dose required to kill 50%, 90% and 99% of tumor cell populations (D50, D10 and D01) were determined. The reciprocal of light dose required to kill 50% of a tumor cell population (1/D50) was used as a photoinactivation rate for each concentration and as a basis for comparison of photosensitizer efficacy. Inactivation rates for the various photosensitizing agents activated with 630 (Photofrin® ), 670 (Ph6-OH) and 750 (BPh4-OH) nm light are shown in the accompanying Figure. Rates of photoinactivation and relative effectiveness of the pheophorbide and bacteriopheophorbide compounds compared to Photofrin®are given in Table C. The inactivation rate for Photofrin® was extrapolated from data generated at much higher drug concentrations utilizing the same experimental protocol. The relative effectiveness of Ph4-OH and BPh4-OH are approximately 800X and approximately 1150X, respectively.\nFor each concentration of photosensitizer compound studied, there was a threshold dose of light below which little or no cell killing occurred. […] For example, for PH6-OH at 0.1, 0.3 and 0.5 μM, the threshold light dose was 0.75, 0.18 and 0.08J/cm^2, respectively."}, "[2]": {"system": "UNA mouse endothelial cells", "test": "Photosensitizer drug uptake into UNA endothelial cells", "assay_type": "cell-based", "method": "(§1) EMT-6 mouse tumor and UNA mouse endothelial cells were exposed to various concentrations of the photosensitizer compounds of the invention in slowly-stirred suspension cultures. […] Cells were lysed and solubilized by mixing 1 mL of cell suspension with 1 mL 4% Triton X-100. After 2 hours of extraction, samples were mixed with 2 mL 95% EtOH and photosensitizer levels quantified by spectrofluorometry using Eex =400 nm and Eem =670 nm. […] For both cell lines, uptake is dependent upon photosensitizer concentration in the media and the larger volume tumor cells show the higher rates of uptake. If drug uptake rate is normalized to a standard cell volume, EMT-6 tumor cells bind the photosensitizer at 1.25 times that of UNA endothelial cells."}, "[3]": {"system": "Dunning prostate carcinomas (R3327-AT)", "test": "Tumor response and cure of Dunning prostate carcinomas after PDT", "assay_type": "in vivo, Fischer X Copenhagen rats", "excerpt": "Tumor response and cure was also investigated with 4-5 cm^3 Dunning prostate carcinomas (R3327-AT) growing in Fischer X Copenhagen rats. These tumors were illuminated by laser light delivered by a laterally-diffusing optical fiber applicator which contained seven fibers in an hexagonal array of equilateral triangles with 0.9 cm spacing."}, "EMT-6 tumor cells": {"system": "EMT-6 tumor cells", "test": "Plating efficiency (colony forming assay) of EMT-6 tumor cells from tumors treated in vivo by PDT", "set-up": "species or system C.B17/Icr scid mice", "settings": "for Plating efficiency, excision at 24 hr / Plating efficiency, immediate excision: 300J of 670 nm light", "method": "(§2) Photosensitizer efficacy was measured with two different tumor models. Solid EMT-6 tumors (~0.1 cm^3) growing on the backs of C.B17/Icr scid mice were exposed to 300J of 670 nm light one hour after the iv administration of Ph4-OH. Light was generated by a laser, transported to the tumor-bearing mouse via an optical fiber and focused onto the tumor surface through a diffusing lens. The light dose rate at the tumor surface was 200-400 mW/cm^2 and the field size encompassed the tumor cross section. […] EMT-6 tumor response was quantified by two different assays. At various times after PDT treatment, animals were sacrified, tumors were removed in toto from the animal and mechanically disrupted. Tumor cells were released by an enzyme digestion procedure. Released tumor cells were plated into Petri dishes for colony forming assays.\nIN VITRO PLATING EFFICIENCIES OF EMT-6\nTUMOR CELLS FROM TUMORS TREATED IN VIVO\nBY PDT WITH 300J OF 670 NM LIGHT"}, "EMT-6 mouse tumor cells [4]": {"system": "EMT-6 mouse tumor cells", "test": "Photosensitizer drug uptake into EMT-6 tumor cells", "assay_type": "cell-based", "settings": "for Initial binding rate: EMT-6", "method": "as §1"}, "EMT-6 tumors": {"system": "EMT-6 tumors", "test": "EMT-6 tumor regrowth assay after PDT", "assay_type": "in vivo, C.B17/Icr scid mice", "settings": "for Regrowth time (time to grow to two times the treatment volume): 300J of 670 nm one hr after administration", "method": "as §2\nTumor response to PDT was also quantified by tumor regrowth assay. The volumes of both untreated and PDT-treated tumors in animals were estimated from caliper measurements made three times a week. Tumor response in vivo was characterized by acute inflammatory reaction observed on days 1 and 2 after treatment followed by tumor volume shrinkage and eventual cure or regrowth. These responses from individual tumors were quantified in days after treatment required for tumors to reach two times their treatment volume. […] Tumor response is a function of photosensitizer dosage. […] In this assay, some tumor cures are consistently observed when growth delay times are 15 days and greater.\nTIME FOR EMT-6 TUMORS TO GROW TO TWO\nTIMES THE TREATMENT VOLUME AFTER 300J\nOF 670 NM DELIVERED ONE HR AFTER I.V.\nPHOTOSENSITIZER ADMINISTRATION"}, "[5]": {"settings": ".3 μM, compared to Photofrin (= 1)"}}, "data": [{"smiles": "CCC1c2cc3[nH]c4c(c3C)C(=O)C(C(=O)OC)c4c3nc(cc4[nH]c(cc(n2)C1C)c(C(C)=O)c4C)C(C)C3CCC(=O)NCCCCO", "note": "(stereo not shown) [BPh4-OH, 9-Acetyl-14-ethyl-13,14-dihydro-21-(methoxycarbonyl)-4,8,13,18-tetramethyl-20-oxo-N-(4-hydroxybutyl)-3-phorbinepropanamide]", "values": [{"measurement": "Photoinactivation rate (1/D50)", "setting": "EMT-6 mouse tumor cells [1]; .3 μM", "result": "10.4 (J/cm^2)^-1"}, {"measurement": "Relative effectiveness", "setting": "EMT-6 mouse tumor cells [1]; [5]", "result": 1156}, {"measurement": "Relative effectiveness", "setting": "EMT-6 mouse tumor cells [1]; compared to Photofrin", "result": "approximately 1150 X"}]}, {"smiles": "C=Cc1c(C)c2cc3nc(c4c5[nH]c(cc6nc(cc1[nH]2)C(C)=C6CC)c(C)c5C(=O)C4C(=O)OC)C(CCC(=O)NCCCCO)C3C", "note": "(stereo not shown) [Ph4-OH, 9-Ethenyl-14-ethyl-21-(methoxycarbonyl)-4,8,13,18-tetramethyl-20-oxo-N-(4-hydroxybutyl)-3-phorbinepropanamide]", "values": [{"measurement": "Initial binding rate", "setting": "[2]; 0.5 μM", "result": 0.067, "unit": "μg/10^6 cells/hr"}, {"measurement": "Initial binding rate", "setting": "[2]; 1.0 μM", "result": 0.038, "unit": "μg/10^6 cells/hr"}, {"measurement": "Tumor necrosis and response", "setting": "[3]; 2 mg/kg iv, 400J of 670 nm light one hour after administration, 4-5 cm^3 tumors", "result": "Complete tumor necrosis and response"}, {"measurement": "Potency relative to Photofrin for inducing tumor necrosis and cure", "setting": "[3]; relative to Photofrin", "result": "at least eighty times more potent"}, {"measurement": "Photoinactivation rate (1/D50)", "setting": "EMT-6 mouse tumor cells [1]; .3 μM", "result": "7.30 (J/cm^2)^-1"}, {"measurement": "Relative effectiveness", "setting": "EMT-6 mouse tumor cells [1]; [5]", "result": 811}, {"measurement": "Relative effectiveness", "setting": "EMT-6 mouse tumor cells [1]; compared to Photofrin", "result": "approximately 800 X"}, {"measurement": "Plating efficiency, excision at 24 hr", "setting": "EMT-6 tumor cells; 1 mg/kg iv", "result": "0.001 ± 0.001"}, {"measurement": "Plating efficiency, immediate excision", "setting": "EMT-6 tumor cells; 1 mg/kg iv", "result": "0.55 ± 0.07"}, {"measurement": "Plating efficiency, excision at 24 hr", "setting": "EMT-6 tumor cells; 2 mg/kg iv", "result": "≤ 0.0001"}, {"measurement": "Plating efficiency, immediate excision", "setting": "EMT-6 tumor cells; 2 mg/kg iv", "result": "0.48 ± 0.09"}, {"measurement": "Tumor cell plating efficiency when tumors excised 24 hr after PDT", "setting": "EMT-6 tumor cells; 24 hr after PDT, in words", "result": "decreased dramatically in proportion to photosensitizer concentration and light dose"}, {"measurement": "Tumor cell killing when tumors excised immediately after PDT", "setting": "EMT-6 tumor cells; immediately after PDT, in words", "result": "little or no killing observed"}, {"measurement": "Potency relative to Photofrin for producing same extent of tumor cell kill in vivo", "setting": "EMT-6 tumor cells; relative to Photofrin, photosensitizer and light doses", "result": "at least fifty times more potent"}, {"measurement": "Initial binding rate", "setting": "EMT-6 mouse tumor cells [4]; 0.5 μM", "result": 0.097, "unit": "μg/10^6 cells/hr"}, {"measurement": "Initial binding rate", "setting": "EMT-6 mouse tumor cells [4]; 1.0 μM", "result": 0.068, "unit": "μg/10^6 cells/hr"}, {"measurement": "Uptake rate normalized to standard cell volume, EMT-6 tumor cells relative to UNA endothelial cells", "setting": "EMT-6 mouse tumor cells [4]; ratio EMT-6/UNA", "result": 1.25, "unit": "times"}, {"measurement": "Regrowth time (time to grow to two times the treatment volume)", "setting": "EMT-6 tumors; 0.45 mg/kg i.v.", "result": "4.3 ± 0.4", "unit": "days"}, {"measurement": "Regrowth time (time to grow to two times the treatment volume)", "setting": "EMT-6 tumors; 0.75 mg/kg i.v.", "result": "8.6 ± 0.5", "unit": "days"}, {"measurement": "Regrowth time (time to grow to two times the treatment volume)", "setting": "EMT-6 tumors; 1.00 mg/kg i.v.", "result": "12.4 ± 0.6", "unit": "days"}, {"measurement": "Regrowth time (time to grow to two times the treatment volume)", "setting": "EMT-6 tumors; 1.50 mg/kg i.v.", "result": "> 22.0", "unit": "days"}, {"measurement": "Tumor response (compared with Ph6-OH)", "setting": "EMT-6 tumors; 300J of 670 nm light, in words", "result": "superior tumor response"}, {"measurement": "Potency relative to Photofrin for equal tumor growth delay", "setting": "EMT-6 tumors; relative to Photofrin, photosensitizer dosage and light dose", "result": "at least fifty times more potent"}]}, {"smiles": "C=Cc1c(C)c2cc3nc(c4c5[nH]c(cc6nc(cc1[nH]2)C(C)=C6CC)c(C)c5C(=O)C4C(=O)OC)C(CCC(=O)NCCCCCCO)C3C", "note": "(stereo not shown) [Ph6-OH, 9-Ethenyl-14-ethyl-21-(methoxycarbonyl)-4,8,13,18-tetramethyl-20-oxo-N-(6-hydroxyhexyl)-3-phorbinepropanamide]", "values": [{"measurement": "Threshold light dose below which little or no cell killing occurred", "setting": "EMT-6 mouse tumor cells [1]; 0.1 μM", "result": 0.75, "unit": "J/cm^2"}, {"measurement": "Threshold light dose below which little or no cell killing occurred", "setting": "EMT-6 mouse tumor cells [1]; 0.3 μM", "result": 0.18, "unit": "J/cm^2"}, {"measurement": "Threshold light dose below which little or no cell killing occurred", "setting": "EMT-6 mouse tumor cells [1]; 0.5 μM", "result": 0.08, "unit": "J/cm^2"}, {"measurement": "Photoinactivation rate (1/D50)", "setting": "EMT-6 mouse tumor cells [1]; .3 μM", "result": "5.10 (J/cm^2)^-1"}, {"measurement": "Relative effectiveness", "setting": "EMT-6 mouse tumor cells [1]; [5]", "result": 567}, {"measurement": "Regrowth time (time to grow to two times the treatment volume)", "setting": "EMT-6 tumors; 0.60 mg/kg i.v.", "result": "4.7 ± 0.7", "unit": "days"}, {"measurement": "Regrowth time (time to grow to two times the treatment volume)", "setting": "EMT-6 tumors; 1.00 mg/kg i.v.", "result": "7.9 ± 1.3", "unit": "days"}, {"measurement": "Regrowth time (time to grow to two times the treatment volume)", "setting": "EMT-6 tumors; 3.00 mg/kg i.v.", "result": "25.5 ± 2.9", "unit": "days"}]}]}
